Measured values: patent publication US20250066853A1, “PHARMACEUTICAL COMPOSITION FOR THE TREATMENT AND/OR PREVENTION OF ANEURYSMS, DIAGNOSTIC SUPPORT METHOD FOR ANEURYSMS, AND METHOD FOR EVALUATING ANEURYSM THERAPEUTICS” (RIKEN, priority 2021, published 2025)
“Also recorded” adds a separate entry of the source.

What was measured:
[1] = test system: AHNAK mutation-induced cerebral aneurysm model mice; test: AHNAK mutation-induced (AHNAKmini p.G3819A) cerebral aneurysm model mice, maximum diameter of cerebral blood vessels (Example 5); assay type: in vivo, mouse; details: day 7 to day 28 post-infection, 20 μL/g/day; PD173074 0.1 mg/mL, LY294002 0.02 mg/mL, staurosporine 0.02 mg/mL; versus non-administered group; PD173074 p<0.05
Description: To introduce AHNAK mutations into experimental animals, it is necessary to incorporate the gene into viral vectors or other vehicles. However, AHNAK is a large protein with a length of 5890 amino acids, making it difficult to incorporate its full-length gene into viral vectors. […] AHNAK has many repeat structures (CRU: Consensus Central Repeat Unit), and the mutation sites are also within the CRU. Therefore, we designed a low-molecular-weight version of AHNAK (AHNAKmini) that combines the […] in this order. […] The amino acid sequence of AHNAKmini is shortened to 1943 amino acids with an N-terminal FLAG tag.
The DNA encoding the AHNAKmini with the p.G3819A mutation was chemically synthesized and subcloned directly into a pAAV vector to prepare pAAV-CMV-AHNAK (SEQ ID NO: 19). This was further modified to have the mutation corresponding to p.G3819A (specifically, changing the 3156th guanine (g) in SEQ ID NO: 19 to cytosine (c)) to prepare pAAV-CMV-AHNAK p.G3819A. HEK293T cells were transfected with the pHelper vector, pRC vector, and pAAV-CMV-AHNAK p.G3819A, and cultured, after which AAV produced by the iodixanol gradient method was harvested (AAV-CMV-AHNAK p.G3819A). As a control, AAV encoding EGFP (AAV-CMV-EGFP) was similarly prepared. After determining the […] of AAV, it was mixed with a hydrogel of PBS comprising 15% Pluronic F-127.
Male C57BL/6N mice aged 8-11 weeks (CLEA Japan) were exposed to the middle cerebral artery according to the protocol described in A. Tamura et al., Journal of Cerebral Blood Flow and Metabolism, 1: 53-60 (1981). The hydrogel comprising AAV was applied multiple times at 5-minute intervals. The skull was covered with temporal fascia, the soft tissue was returned to its original position, and the skin was sutured. The total application amounts of AAV-CMV-EGFP and AAV-CMV-AHNAK p.G3819A were 2.4×10^10 vg and 3.3×10^11 vg, respectively. […]
After decapitation, the cerebral blood vessels were exposed, and the maximum diameter of the cerebral blood vessels was measured. […]

[2] = test system: mouse model of cerebral aneurysms (PDGFRβ p.559_562del); test: Mouse cerebral aneurysm model with AAV-introduced PDGFRβ p.559_562del, basilar artery size (Example 2); assay type: in vivo; details: mice with AAV PDGFRβ p.559_562del, daily i.p. sunitinib 40, axitinib 25, dasatinib 10 mg/kg/day, 28 days post-infection, versus vehicle, sunitinib p<0.05 (Mann-Whitney U)
Description: A mouse CA (cerebral aneurysm) model was constructed by applying adeno-associated virus (AAV) around the non-branching region of the basilar artery. HEK293T cells were transfected with pHelper vector, pRC vector, and a pAAV vector comprising the target gene. After culturing, AAV was harvested using the iodixanol gradient method. After determining the AAV serotype, it was mixed with a hydrogel of PBS comprising 15% Pluronic F-127. The virus concentrations (vg/mL) in the hydrogels of AAV-CMV-EGFP, AAV-CMV-PDGFRβ, and AAV-CMV-PDGFRβ p559_562del were 2×10^13, 1×10^12, and 1×10^12, respectively.
Male C57BL/6N mice aged 8-11 weeks (CLEA Japan) were deeply anesthetized with medetomidine (0.3 mg/kg), midazolam (4 mg/kg), and butorphanol (5 mg/kg) administered intraperitoneally (i.p.). The basilar artery was exposed as previously described (Yonekura et al., 2004). Three microliters of hydrogel were applied to the basilar artery and removed after 5 minutes. This application was repeated two more times. The mice were divided into three subgroups (control, PDGFRβ(wt), and PDGFRβ(mutant)). […]
To evaluate the effect of the virus, sections were stained with Elastica Van Gieson (EVG) method, selecting the largest artery section from each brain sample for measurement. […] The area and perimeter of the stained sites were calculated using FUJI-ImageJ software (J. Schindelin et al., Nature Methods, 2012).

[3] = test system: mouse model of cerebral aneurysms (PDGFRβ p.559_562del); test: Mouse cerebral aneurysm model with PDGFRβ p.559_562del, low-dose treatment from day 7, maximum diameter of basilar artery (Example 3)
Description: After deep anesthesia with isoflurane, the mice were decapitated, and the cerebral blood vessels were exposed to measure the maximum diameter of the basilar artery. Each drug administration condition was tested on three mice.

Structure (SMILES): O=c1cc(N2CCOCC2)oc2c(-c3ccccc3)cccc12 [LY294002]
- Increase in maximum cerebral vessel diameter [1]: suppressed in all mice

Structure (SMILES): CCN(CC)CCCCNc1ncc2cc(-c3cc(OC)cc(OC)c3)c(NC(=O)NC(C)(C)C)nc2n1 [PD173074]
- Increase in maximum cerebral vessel diameter [1]: significant suppression

Structure (SMILES): CNC(=O)c1ccccc1Sc1ccc2c(/C=C/c3ccccn3)n[nH]c2c1 [axitinib]
- Enlargement (dilation) of basilar artery ([2]; listed as avitinib): suppressed this arterial dilation

Structure (SMILES): Cc1nc(Nc2ncc(C(=O)Nc3c(C)cccc3Cl)s2)cc(N2CCN(CCO)CC2)n1 [dasatinib]
- Enlargement (dilation) of basilar artery [2]: suppressed this arterial dilation
- Maximum diameter of basilar artery (cerebral vessel expansion) compared to sunitinib ([3]; i.p. daily day 7 to day 28, axitinib 0.76, dasatinib 1.0, sunitinib 0.78 mg/kg/day, three mice each, dasatinib vs sunitinib p=0.040): significantly suppressed cerebral vessel expansion
- Treatment effect on cerebral artery expansion (rank order) ([3]; low concentration ranges, administration from day 7 after mutation introduction): highest for dasatinib; also recorded: high treatment/preventive effects

Structure (SMILES): CN[C@@H]1C[C@H]2O[C@@](C)([C@@H]1OC)n1c3ccccc3c3c4c(c5c6ccccc6n2c5c31)C(=O)NC4 [staurosporine]
- Increase in maximum cerebral vessel diameter [1]: suppressed in all mice
